Patent US20250235429A1, “TREATMENT OF DISEASES VIA ADMINISTRATION OF BUNTANETAP AND AN ANTIDIABETIC AGENT” (ANNOVIS BIO, INC., priority 2024, published 2025)

Key:
[1] = tested on: APP/PS1 transgenic (tg) mouse model of AD; conditions: cited from earlier work
[2] = tested on: human SNCAA53T tg mouse model of PD; conditions: cited from earlier work
APP and its fragments = experiment: APP in vivo in APP/PS1 transgenic AD mice (hippocampus)
Source text: FIG. 2, APP in vivo. […] GAPDH and Synaptophysin were loading controls. FIG. 2 also includes a collection of graphs showing relative density of APP plotted against control and time after buntanetap treatment; relative density of CTFβ plotted against control and time after buntanetap treatment; relative density of CTFα plotted against control and time after buntanetap treatment; A042 levels in brain tissue plotted against control and time after buntanetap treatment; and A040 levels in brain tissue plotted against control and time after buntanetap treatment. Finally, FIG. 2 also includes a Western blot showing levels of APP, NSB, CTFβ, and CTFα after buntanetap treatment over time (minutes).

[3] = tested on: hippocampal slices APP/PS1 transgenic mice; experiment: Electrophysiological study: long-term potentiation (LTP) in hippocampal slices; format: in vivo
Protocol: (§1) Animals: Heterozygous double transgenic mice expressing both human APP (K670N:M671L) and human PS1 (M146L) (line 6.2) and their wild-type non-transgenic littermates, both males and females, were used for these experiments. They were obtained by a breeding colony maintained at the animal facility of Columbia University. They were genotyped through PCR on tail samples. Animals were injected i.p. from the age of […] for 1 month prior to starting behavioral assessment which lasted for 2 weeks during which treatment continued. Behavioral assessment examined spatial and associative memory. Finally, mice were sacrificed for electrophysiological assessment of synaptic function.
(§2) Mice were coded to blind investigators with respect to genotype and treatment. Results were expressed with Standard Error of the Mean (SEM). Level of significance was set for p<0.05. Results were analyzed by ANOVA analysis with post-hoc correction with the combination or genotype as main effect. Experiments were designed in a balanced fashion, and mice were trained and tested at each of the different conditions in 3 or 4 separate experiments.
Mice were i.p. injected with the drug from the age of 8 weeks prior to plaque appearance until euthanasia for collecting slices at the age of 14-16 weeks. The treatment with Buntanetap was daily, whereas the treatment with dulaglutide was twice a week.
Electrophysiological analysis was performed on 400 μm hippocampal slices, cut with a tissue chopper and maintained in an interface chamber at 29° C. for 90 min prior to recording. Briefly, CA1 fEPSPs were recorded by placing both the stimulating and the recording electrodes in CA1 stratum radiatum. Basal synaptic transmission was assayed, either by plotting the stimulus voltages against slopes of fEPSP, or by plotting the peak amplitude of the fiber volley against the slope of the fEPSP. For LTP experiments, a 15 min baseline was recorded every min at an intensity that evokes a response ˜35% of the maximum evoked response. LTP was induced using θ-burst stimulation (4 pulses at 100 Hz, with the bursts repeated at 5 Hz and each tetanus including 3 ten-burst trains separated by 15 see). Data was subjected to statistical analyses to determine the effects of combination on inhibiting synaptic dysfunction.

APP/PS1 transgenic mice = experiment: 2-day radial arm water maze (RAWM), spatial memory; format: in vivo
Protocol: as §1, §2
Mice were i.p. injected with the drug from the age of 8 weeks prior to plaque appearance until behavioral assessment that started at 12 weeks of age and lasted for 2 weeks.
Spatial memory was studied with the 2-day radial arm water maze (RAWM) test. The task is a hybrid of the Morris Water Maze (MWM) and the radial arm land maze. The motivation for the animals is immersion in water. The mouse needs to swim in 6 alleys (arms) radiating from a central area until it finds a hidden (submerged) platform at the end of one of the arms, based on visual cues placed in the room. In the old RAWM version of the task, the goal arm varies from day to day, requiring 21 days of training in wild-type mice to reach the learning criterion. In the new version of the task, the goal arm is kept constant for all trials, with a different start arm on successive trials, such that the learning criterion will be reached in 2 days. The first day of the protocol was a training day. Mice were trained to identify the platform location by alternating between a visible and a hidden platform in a goal arm. The final 3 trials on day 1 and all 15 trials on day 2 used a hidden escape platform to force mice to use spatial cues to identify the location of the goal arm. To avoid learning limitations imposed by exhausting practice and to avoid fatigue that may result from consecutive trials, spaced practice training was established by running the mice in cohorts of 4 and alternating different cohorts through the 15 training trials over 3 hours testing periods each day. On day 1, a visible platform was laced in a goal location. Mouse 1 of cohort 1 was gently placed in the pool near the perimeter of the wall of the first start arm (specified on a score sheet) and facing the center of the pool. The number of incorrect arm entries (entries in arms with no platform) was counted. If the animal enters the incorrect arm it was gently pulled back to the start arm. Each trial lasted up to 1 min. Failure to select an arm after 15 sec was counted as an error and the mouse was returned to the start arm. After 1 min, if the platform had not been located, the mouse was guided gently through the water by placing a hand behind it to direct it towards the platform. The mouse rested on the platform for 15 sec. After completing the trial, the mouse was removed from the pool, gently towel dried and placed back into its cage under a heat lamp. The goal platform location was different for each mouse. […] After each mouse from cohort 1 completed six alternating trials between visible and hidden platforms, the mice were left to rest under a heating source, and mice from the second cohort were tested in the same way.

[4] = tested on: APP in SH-SY-5Y human neuroblastoma cells; experiment: APP in vitro (Western blot) in neuroblastoma cells; format: cell-based; conditions: SH-SY-5Y cells; 0, 0.1, 1, 5 and 10 μM
tau = conditions: unpublished observation, Peter Davies Laboratory; cited from earlier work
[5] = APP/PS1 mice, Buntanetap 1 mg/Kg and/or dulaglutide 0.1 mg/Kg

## CN1CC[C@]2(C)c3cc(OC(=O)Nc4ccccc4)ccc3N(C)C12 (stereo partly drawn) [Buntanetap, (3aR)-1,3a,8-trimethyl-1,2,3,3a,8,8a-hexahydropyrrolo[2,3-b]indol-5-yl phenylcarbamate]
[1]; APP/PS1 transgenic (tg) mouse model of AD
  memory and learning: Restored
[1]; hippocampus of APP/PS1 tg mice
  impaired synaptic transmission: Normalized
[2]
  colonic motility: Restored
APP and its fragments; APP/PS1 mice
  time after the last dose for which APP and all related peptides in hippocampus were reduced: at least 9 hours
APP and its fragments; APP/PS1 transgenic AD mice
  APP and its fragments in hippocampus: reduced
[3]; APP/PS1, Buntanetap 1 mg/kg
  % Improvement (Residual Potential): 4.8%
[3]; APP/PS1, Buntanetap 1 mg/kg i.p. daily
  Residual Potential (mean): 141.55
[3]; APP/PS1, Buntanetap 10 mg/kg i.p. daily
  Residual Potential (mean): 213.56
[3]; APP/PS1, Buntanetap 10 mg/kg, 100% = wt veh minus APP/PS1 veh
  % Improvement (Residual Potential): 90.5%
[3]; [5]
  impairment of synaptic plasticity measured through Long-term potentiation (LTP): did not ameliorate
APP/PS1 transgenic mice; APP/PS1, Buntanetap 1 mg/kg
  % Improvement (RAWM errors): 29.4%
  Meran Number of Errors (RAWM): 2.8
APP/PS1 transgenic mice; APP/PS1, Buntanetap 10 mg/kg
  Meran Number of Errors (RAWM): 1.6
APP/PS1 transgenic mice; APP/PS1, Buntanetap 10 mg/kg, 100% = difference of 1.7 errors
  % Improvement (RAWM errors): 100%
APP/PS1 transgenic mice; [5]
  impairment of short-term spatial memory measured through the 2-day radial arm water maze (RAWM): did not ameliorate
[4]
  APP in relation to Actin standard (Western blot): lowers APP in vitro in a dose-dependent manner
tau
  tau in vitro: lowers
